Laboratory results: PMC5287478, “Quantitative Affinity Determination by Fluorescence Anisotropy Measurements of Individual Nanoliter Droplets” (Analytical Chemistry, 2017)

How the values were obtained:
[1] = Retention of BRC4fl in droplets (leakage into oil phase); type: physicochemical; conditions: HFE 7500 with 1% w/v AZ2C fluorosurfactant, approx. 1 minute to detection point
Procedure: AZ2C fluoroLsurfactant (made inLhouse according to a previously published method).4 The time to reach the detection point (approx. 1 minute) was sufficient for significant leakage of BRC4fl from the droplet. Addition of additives such as BSA has been found effective in increasing the effective solubility of reagents.5 BSA was titrated using the same droplet titration technique up to 1.2%. The fluorescence intensity measured at the detection point was […]
increase retention of the fluorophore in the droplet. Anisotropy reached a steadyLstate value when BSA was present at concentrations above 0.2%. Although the linear increase of […]
presence of BSA concentrations above 1% made droplet formation more difficult, because of the increased viscosity of the aqueous phase and the formation of BSA vesicles. Therefore 1% BSA was chosen as a compromise between these effects and all experiments were […]
Figure S4. Influence of BSA concentration on the retention of BRC4fl within the droplet. (A) Intensity is linearly increasing with BSA concentration. (B) Fluorescence anisotropy converges towards a steadyLstate value above a threshold concentration of BSA

[2] = molecular target: T1, HumRadA18 (Pyrococcus furiosus, UniProt O74036, D220A/D267M/E219S/H199N/H264F/I169M/I200V/I222M/K198D/K221M/K223V/K263R/L213Q/L225S/L274E/Q216Y/V168A/V202Y/V215L/V232Y/W170Y/Y201A/Y275F); assay: Competition assay with BRC4^fl in nanoliter droplets; type: binding
T1 construct: made in house; host or cells: E. coli BL21(DE3) pUBS520, pBAT plasmid

[3] = system: RAD51; conditions: 30–35 amino acid peptide corresponding to BRC repeat 4; cited from earlier work
From the text: We explore the potential of single droplet anisotropy measurements for the study of structure–activity relationships for protein–protein interactions in nanoliter volumes. Specifically, we address the interactions of the BRC4 peptide, a reductionist model of the recombination mediator BRCA2, with mutants of an archaeal surrogate of the recombinase RAD51.[10] […] Inhibit ...

CC[C@H](C)[C@H](NC(=O)[C@H](CCCCN)NC(=O)[C@@H](NC(=O)[C@H](CCCCN)NC(=O)[C@H](CCCCN)NC(=O)CNC(=O)[C@H](CO)NC(=O)[C@H](C)NC(=O)[C@@H](NC(=O)[C@H](Cc1c[nH]cn1)NC(=O)[C@H](Cc1ccccc1)NC(=O)CNC(=O)[C@H](CC(C)C)NC(=O)[C@H](CC(C)C)NC(=O)[C@@H](NC(=O)[C@@H]1CCCN1C(=O)[C@H](CCC(=O)O)NC(=O)[C@H](CCCCN)NC(=O)[C@H](CSC1CC(=O)N(c2ccc3c(c2)C(=O)OC32c3ccc(O)cc3Oc3cc(O)ccc32)C1=O)NC(C)=O)[C@@H](C)O)[C@@H](C)O)C(C)C)C(=O)N[C@@H](C)C(=O)N[C@@H](CCCCN)C(=O)N[C@@H](CCC(=O)O)C(=O)N[C@@H](CO)C(=O)N[C@@H](CC(C)C)C(=O)N[C@@H](CC(=O)O)C(=O)N[C@@H](CCCCN)C(=O)N[C@H](C(=O)N[C@@H](CCCCN)C(=O)N[C@@H](CC(N)=O)C(=O)N[C@@H](CC(C)C)C(=O)N[C@@H](Cc1ccccc1)C(=O)N[C@@H](CC(=O)O)C(=O)N[C@@H](CCC(=O)O)C(=O)N[C@@H](CCCCN)C(=O)N[C@@H](CCC(=O)O)C(=O)N[C@@H](CCC(N)=O)C(N)=O)C(C)C (stereo partly drawn) [BRC4]
leakage from droplet [1]: high propensity for leakage | Kd [2]: 0.045 µM | RAD51 activity [3]: block RAD51 activity
